# Data reported in patent US11324725B2, “Compositions and methods for the inhibition of pruritus” (The United States of America, as represented by the …, priority 2017, dated 2022).
# Entries after “also recorded” stand apart in the source; their conditions may differ. Where a SMILES comes first, the peptide text is derived from it. Bridges are numbered along the chain shown (N, C = ends). [ ]: non-standard residue; d: D form. dTic = O=C(O)[C@H]1Cc2ccccc2CN1; Cha = N[C@@H](CC1CCCCC1)C(=O)O
# Legend:
# hNpr1 = biological target: T1, hNpr1 (Homo sapiens, UniProt P16066); test: GloSensor assay in 96-well format, HEK-hNpr1-cGMP-sensor cells; format: cell-based; conditions: 5 μM antagonist, increasing hNppa; GloSensor and membrane cyclase assays (FIGS. 5B-C)
# T1 sequence (P16066 33-1061): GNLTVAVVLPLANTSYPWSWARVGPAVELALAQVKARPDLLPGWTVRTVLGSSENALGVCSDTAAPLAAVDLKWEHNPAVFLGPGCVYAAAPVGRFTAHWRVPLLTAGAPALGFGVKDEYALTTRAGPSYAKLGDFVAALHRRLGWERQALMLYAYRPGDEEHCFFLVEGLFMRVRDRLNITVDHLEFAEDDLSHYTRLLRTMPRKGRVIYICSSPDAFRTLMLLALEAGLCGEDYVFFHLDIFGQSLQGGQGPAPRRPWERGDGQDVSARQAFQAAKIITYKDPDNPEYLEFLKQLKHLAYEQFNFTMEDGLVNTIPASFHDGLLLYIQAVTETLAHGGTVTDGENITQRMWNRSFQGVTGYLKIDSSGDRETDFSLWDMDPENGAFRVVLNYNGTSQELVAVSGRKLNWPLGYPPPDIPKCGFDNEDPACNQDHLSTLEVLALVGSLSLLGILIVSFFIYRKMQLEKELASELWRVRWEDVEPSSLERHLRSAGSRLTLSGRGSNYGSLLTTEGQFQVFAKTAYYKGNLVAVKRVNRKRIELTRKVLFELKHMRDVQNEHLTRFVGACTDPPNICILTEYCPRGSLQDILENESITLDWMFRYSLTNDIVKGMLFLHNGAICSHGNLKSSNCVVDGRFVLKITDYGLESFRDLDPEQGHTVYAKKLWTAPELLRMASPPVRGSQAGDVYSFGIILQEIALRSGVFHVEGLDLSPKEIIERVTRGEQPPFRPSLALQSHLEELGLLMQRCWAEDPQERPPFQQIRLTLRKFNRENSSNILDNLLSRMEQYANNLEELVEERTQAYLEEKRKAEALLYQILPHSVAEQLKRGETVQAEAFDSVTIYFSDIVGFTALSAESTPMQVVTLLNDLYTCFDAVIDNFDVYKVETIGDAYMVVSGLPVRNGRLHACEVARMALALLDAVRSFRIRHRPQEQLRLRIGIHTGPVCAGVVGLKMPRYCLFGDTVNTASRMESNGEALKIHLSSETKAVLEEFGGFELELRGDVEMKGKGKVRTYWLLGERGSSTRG
# Method: (§1) Before the measurement (24 hours in advance), 3×10^4 cells were seeded into white 96-well plates (PerkinElmer, Waltham, Mass.), coated with 0.1% poly(D-lysine), and assays conducted as recommended by the manufacturer (Promega). Medium was aspirated and cells were loaded for two hours at room temperature with 2% GoSensor™ reagent diluted in CO2-independent media (ThermoFisher) supplemented with 2 mM L-glutamine and 10% FBS (assay medium). Luminescence was measured on a BioTek Synergy™ NEO (Winooski, Vt.) plate reader at room temperature. After a baseline measurement of 3-5 minutes, assay medium as a control or assay medium with agonist was manually added, and luminescence was measured for 30 minutes at ˜ 1/60 Hz. For compounds tested for Npr1 and Npr2 inhibition, the compounds were added after baseline measurements, and luminescence was read for 5 minutes before addition of agonist. Luminescence was then normalized to baseline measurements and plotted against the time. Ligand-induced changes of cGMP production were quantified by determining the area under the curve. To determine efficacy and potency of agonists, ligand-induced changes were normalized to medium only addition and plotted against the ligand concentration. […] To quantify […] of compounds, compound-induced changes of agonist-induced cGMP production were normalized to vehicle controls, plotted against compound concentration, and fit with a four-parameter logistic regression. Effects of A-71915 on basal mNpr1 activity were fitted with a bell-shaped regression (equation indicated below).
# Additional screens of the fifteen candidates corroborated hNpr1 inhibition. In particular, HEK-hNpr1-cGMP-sensor cells were seeded in 96-wells and stimulated with 60 pM hNppa 5 minutes after addition of candidate compounds or A-71915 and luminescence was measured for 30 minutes. Inhibitors were titrated to calculate apparent potency (IC50) and efficacy (Imax) of inhibition of hNppa-induced cGMP production.
# mice = conditions: reported; cited from earlier work
# mNpr1 = biological target: T2, mNpr1 (Mus musculus, UniProt P18293); test: GloSensor assay, HEK-293 cells transiently expressing mNpr1 and pGS-40F; format: cell-based; conditions: no agonist
# T2 construct: host or cells: HEK-293, transient co-transfection with pGS-40F
# T2 sequence (P18293 29-1057): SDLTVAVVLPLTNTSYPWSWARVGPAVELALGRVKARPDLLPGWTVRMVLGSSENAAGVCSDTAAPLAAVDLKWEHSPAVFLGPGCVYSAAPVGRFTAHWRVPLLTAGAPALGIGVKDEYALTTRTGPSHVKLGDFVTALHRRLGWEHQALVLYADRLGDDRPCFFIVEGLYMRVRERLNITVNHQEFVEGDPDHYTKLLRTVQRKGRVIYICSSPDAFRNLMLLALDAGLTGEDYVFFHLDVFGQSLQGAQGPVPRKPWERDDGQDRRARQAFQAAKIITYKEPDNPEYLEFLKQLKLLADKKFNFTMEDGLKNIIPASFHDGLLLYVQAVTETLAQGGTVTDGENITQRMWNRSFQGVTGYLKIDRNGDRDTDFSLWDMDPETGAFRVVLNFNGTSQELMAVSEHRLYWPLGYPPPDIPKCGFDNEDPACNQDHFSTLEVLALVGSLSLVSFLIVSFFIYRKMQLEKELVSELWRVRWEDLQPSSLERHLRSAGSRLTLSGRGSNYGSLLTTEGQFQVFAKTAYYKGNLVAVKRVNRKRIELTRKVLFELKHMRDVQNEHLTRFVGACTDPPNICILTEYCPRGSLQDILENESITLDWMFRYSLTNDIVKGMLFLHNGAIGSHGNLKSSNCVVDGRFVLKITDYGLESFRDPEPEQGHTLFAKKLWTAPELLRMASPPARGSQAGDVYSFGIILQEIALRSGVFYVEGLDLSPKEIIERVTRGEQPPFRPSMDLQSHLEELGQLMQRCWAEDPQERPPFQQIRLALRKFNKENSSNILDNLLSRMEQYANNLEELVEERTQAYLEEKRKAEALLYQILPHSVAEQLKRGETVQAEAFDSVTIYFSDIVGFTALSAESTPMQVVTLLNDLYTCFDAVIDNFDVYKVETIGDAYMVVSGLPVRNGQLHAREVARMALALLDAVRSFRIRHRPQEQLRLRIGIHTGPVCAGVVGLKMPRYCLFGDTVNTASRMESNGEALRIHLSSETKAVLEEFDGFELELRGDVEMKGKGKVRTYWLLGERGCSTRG
# Method: HEK-293 cells (American Type Culture Collection “ATTC,” Manassas, Va.) were cultured in DMEM/F12 supplemented with 2 mM L-glutamine, 10% FBS, 100 U/ml penicillin, and 100 μg/ml streptomycin. For transient expression, 8×10^5 cells were seeded in 6-wells, cultured for 24 hours, and then transfected using TransIT®-293 (Mirus, Madison, Wis.) according to the manufacturer's instructions. After transfection (48 hours), cells were used to measure intracellular cGMP production. HEK-293 cell clones stably expressing pGloSensor™-40F alone (HEK-cGMP-sensor cells) or in addition, human Npr1 (“hNpr1”) (HEK-hNpr1-cGMP-sensor cells) or human Npr2 (HEK-hNpr2-cGMP-sensor cells) were generated by co-transfection with pEAK8-GFP and selection with 1 μg/ml puromycin. Stable expression of transgenes was verified by measuring ligand-induced cGMP production with the cGMP biosensor.
# as §1
# Because the Npr1 receptor is a ligand-dependent guanylate cyclase, measuring agonist-induced changes in intracellular cGMP levels was used to examine inhibition of Npr1. To measure the production of cGMP by Npr1, a circular permutated Firefly luciferase molecule which was functionally linked to the cGMP binding domain of human PDE5 (GloSensor™ technology pGS-40F) was used, as described in Example 1. This reporter molecule together with a luciferase substrate (GoSensor™ reagent) and a sensitive method for detection of luciferase activity (emitted light) permitted real-time measurement of cGMP levels in live cells (FIG. 1A). The cGMP sensor was expressed in HEK293 cells and luciferase activity after stimulation with the NO-donor sodium nitroprusside (SNP), which activates ubiquitously expressed soluble guanylate cyclases, was examined. […] Next, mNpr1 and the cGMP sensor were transiently expressed in HEK293 cells and agonist dependent receptor activation was examined. […] Next, the effects of A-71915 on mNpr1 were tested.
# For Table 6, HEK-293 cells transiently expressing mNpr1 and pGS-40F were stimulated with 1 nM mNppb 5 minutes after addition of candidate compounds or A-71915 and luminescence was measured for 30 minutes. Inhibitors were titrated to calculate apparent IC50 values, as described in methods.
Molecule,Effect on hNppa concentration-response at fixed antagonist concentration (hNpr1),Block of acute itch responses elicited by intradermal pruritogens (mice),Effect on basal mNpr1 activity in the absence of natriuretic peptides (mNpr1)
"1-cyclohexyl-3-(cyclopropylmethyl)-N-((3-methylisoxazol-5-yl)methyl)-2-oxo-2,3-dihydro-1H-benzo[d]imidazole-5-carboxamide [JS-11]",reduced maximal responses even at extremely high hNppa concentrations,,
"CC[C@H](C)[C@@H]1NC(=O)[C@H](CCCNC(=N)N)NC(=O)CNC(=O)CNC(=O)[C@H](CC2CCCCC2)NC(=O)[C@@H](NC(=O)[C@@H](N)CCCNC(=N)N)CSSC[C@@H](C(N)=O)NC(=O)[C@H](CCCNC(=N)N)NC(=O)[C@H]2Cc3ccccc3CN2C(=O)[C@H]([C@@H](C)CC)NC(=O)[C@H](CCCNC(=N)N)NC(=O)[C@H](CC(=O)O)NC1=O [Compound A-71915, reference compound] (H-RC[Cha]GGRIDRI[dTic]RC-NH2; disulfide 2-13; N-terminus and C-terminus assumed)",right-shift in hNppA potency without any effect on maximal efficacy,does not block acute itch responses,partial agonist; also recorded: directly stimulates basal mNpr1 activity
